Source: publication PMC8637440, “Structural Modifications Yield Novel Insights Into the Intriguing Pharmacodynamic Potential of Anti-inflammatory Nitro-Fatty Acids” (Frontiers in Pharmacology, 2021)
“And” between values parts separate entries of the source, which are not always exact repeats. Equal values may be shown once.

Legend:
15-LO = molecular target: T1, 15-LO (Homo sapiens, UniProt P16050); experiment: 15-HETE formation in intact PMNL preparations, A23187 + 20 µM AA; format: cell-based; conditions: 15 min preincubation, A23187 2.5 µM + 20 µM AA, n.i. = no inhibition observed; for PMNL (20 µM AA) 15-HETE IC50: intact PMNL; for IC50: PMNL (20 µM AA) 15-HETE IC50, intact PMNL
T1 construct: endogenous in cells; host or cells: eosinophils in human PMNL preparations
T1 sequence (P16050 1-662): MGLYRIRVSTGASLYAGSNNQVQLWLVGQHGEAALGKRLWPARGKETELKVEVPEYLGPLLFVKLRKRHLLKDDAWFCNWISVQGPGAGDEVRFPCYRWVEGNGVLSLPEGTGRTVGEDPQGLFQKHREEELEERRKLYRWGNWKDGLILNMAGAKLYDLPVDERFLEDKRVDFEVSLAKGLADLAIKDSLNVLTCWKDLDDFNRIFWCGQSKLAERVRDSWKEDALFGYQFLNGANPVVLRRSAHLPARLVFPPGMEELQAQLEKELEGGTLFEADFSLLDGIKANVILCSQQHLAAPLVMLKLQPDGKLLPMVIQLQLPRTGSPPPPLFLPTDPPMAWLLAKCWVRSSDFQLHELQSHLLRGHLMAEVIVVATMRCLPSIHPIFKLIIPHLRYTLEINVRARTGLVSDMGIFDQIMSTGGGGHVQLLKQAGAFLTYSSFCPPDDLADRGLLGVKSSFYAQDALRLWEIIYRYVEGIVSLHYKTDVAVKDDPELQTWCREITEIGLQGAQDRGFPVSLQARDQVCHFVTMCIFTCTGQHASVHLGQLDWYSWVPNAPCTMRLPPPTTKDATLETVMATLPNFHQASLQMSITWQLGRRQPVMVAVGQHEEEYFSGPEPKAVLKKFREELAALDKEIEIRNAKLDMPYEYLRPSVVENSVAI
Method: (§1) Buffy coats from different donors of different blood types were commercially obtained from DRK Blutspendedienst Baden-Württemberg Institute Frankfurt. Donors have given their written consent. […] Following separation, the supernatant was transferred very gently to new 50-ml tubes containing lymphocyte separation medium (LSM) and centrifuged for 10 min at 800 ×g at RT with the centrifuge brake turned off. Afterwards, the supernatant was decanted carefully to discard the platelets and monocytes. The PMNL were washed with 1× PBS before the residual erythrocytes were lysed in two cycles: the cell pellet was resuspended with 10 ml H2O and vortexed for 45 s, and lysis was stopped with 40 ml 1 × PBS. After 10-min centrifugation at 200 ×g at RT, the cycle was repeated once. The supernatant was aspirated, the cell pellet resuspended in 5 ml PBS/glucose and initially separated PMNL preparations with different blood types were finally pooled to gain a sufficient number of cells. […] The enzyme was diluted in PBS/EDTA/ATP, transferred into 5-ml glass tubes, and stored on ice. […] The reaction was stopped by placing the glass tubes on ice. The supernatants were transferred to 1.5 ml reaction tubes and stored at −80°C before LC-MS (liquid chromatography and mass spectrometry) analysis of LTB4 and HETEs as described in 2.6 at the Institute of Pharmacology, Goethe University, University Hospital, Germany. The lipid mediators LTB4, hydroxyeicosatetraenoic acids, 5(S)-HETE, 12(S)-HETE, 15(S)-HETE and 20-HETE were analyzed using liquid chromatography tandem-mass spectroscopy (LC-MS/MS). The LC-MS/MS system consisted of a 5500 QTrap mass spectrometer (Sciex, Darmstadt, Germany), operating in negative ESI mode, an Agilent 1200 HPLC system (Agilent, Waldbronn, Germany) and an HTC Pal autosampler (Chromtech, Idstein, Germany). Sample extraction of LTB4 and HETEs were performed using liquid-liquid extraction: 200 µl of the sample were gently mixed with 20 µl of methanol and 20 µl of internal standard solution and extracted twice with 600 µl ethyl acetate. […] Working solutions of all analytes were prepared in methanol containing 0.1% BHT. The calibration standards were prepared by further dilution of the working standards. […] The residues were reconstituted in 50 µl of methanol:water:BHT (50:50:10^−4, v/v/v) prior to injection into the LC-MS/MS system. Chromatographic separation was achieved using a Gemini NX C18 column (150 mm × 2 mm ID, 5 µm, Phenomenex, Aschaffenburg, Germany) with a precolumn of the same material. A linear gradient was employed at a flow rate of 0.5 ml/min and a total run time of 17.5 min. Mobile phases were A water:ammonia (100:0.05, v/v) and B acetonitrile:ammonia (100:0.05, v/v). […] All data were acquired using Analyst software v1.6.2 and quantitation was performed by MultiQuant software v3.0 (both Sciex, Darmstadt, Germany) using the internal standard method (isotope-dilution mass spectrometry). Calibration curves were calculated by linear regression with 1/x.

5-LO = molecular target: T2, 5-LO (Homo sapiens, UniProt P09917); experiment: 5-LO product formation (LTB4, 5-HETE) in intact PMNL, A23187 + 20 µM AA; format: cell-based; conditions: 15 min preincubation, A23187 2.5 µM + 20 µM AA, n.i. = no inhibition observed; for PMNL (20 µM AA) 5-HETE IC50 / PMNL (20 µM AA) LTB4 IC50: intact PMNL
T2 construct: endogenous in cells; host or cells: human PMNL from buffy coats
T2 sequence (P09917 1-674): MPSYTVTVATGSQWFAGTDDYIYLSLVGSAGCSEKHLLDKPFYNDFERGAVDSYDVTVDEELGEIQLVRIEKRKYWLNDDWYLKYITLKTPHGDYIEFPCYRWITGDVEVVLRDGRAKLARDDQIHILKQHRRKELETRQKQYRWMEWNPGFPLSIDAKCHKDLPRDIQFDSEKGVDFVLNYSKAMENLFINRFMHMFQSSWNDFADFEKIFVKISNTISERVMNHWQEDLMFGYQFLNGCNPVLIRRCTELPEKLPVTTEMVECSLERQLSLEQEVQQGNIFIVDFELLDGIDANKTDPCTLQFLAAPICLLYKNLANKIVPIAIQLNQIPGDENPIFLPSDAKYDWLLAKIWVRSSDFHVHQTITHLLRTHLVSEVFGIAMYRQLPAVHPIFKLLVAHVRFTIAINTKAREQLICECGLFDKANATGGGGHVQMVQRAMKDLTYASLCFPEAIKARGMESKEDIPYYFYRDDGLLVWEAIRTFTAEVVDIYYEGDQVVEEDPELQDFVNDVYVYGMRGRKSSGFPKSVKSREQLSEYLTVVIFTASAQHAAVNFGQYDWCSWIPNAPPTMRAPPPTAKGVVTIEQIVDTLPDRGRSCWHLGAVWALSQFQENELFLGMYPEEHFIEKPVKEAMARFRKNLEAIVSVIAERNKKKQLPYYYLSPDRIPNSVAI
Method: as §1

[1] = PMNL (20 µM AA) 5-HETE IC50, intact PMNL
[2] = PMNL (20 µM AA) LTB4 IC50, intact PMNL

Compound | PMNL (20 µM AA) 15-HETE IC50 (15-LO) | PMNL (20 µM AA) 5-HETE IC50 (5-LO) | PMNL (20 µM AA) LTB4 IC50 (5-LO) | IC50 (5-LO; [1]) | IC50 (5-LO; [2]) [µM] | IC50 (15-LO)
CCC=C(CCCCCCCC(=O)O)[N+](=O)[O-] [12.9.9, 9-nitro-dodec-9-enoic acid] | n.i. | n.i. | n.i. |  |  | 
CCCCC=C(CCCCCCCC(=O)O)[N+](=O)[O-] [14.9.9, 9-nitro-tetradec-9-enoic acid] | n.i. | n.i. | n.i. |  |  | 
CCCCCCC=C(CCCCCCCC(=O)O)[N+](=O)[O-] [16.9.9, 9-nitro-hexadec-9-enoic acid] | n.i. |  |  | 10.8 ± 1.1 µM | 12 ± 1.1 | 
CCCCCCCCCCCCCC=C(CCC(=O)O)[N+](=O)[O-] [18.4.4, 4-nitro-octadec-4-enoic acid] |  |  |  | 9.2 ± 1.2 µM | 10.6 ± 1.1 | 7.7 ± 1.2 µM
CCCCCCCCCCCC=C(CCCCC(=O)O)[N+](=O)[O-] [18.6.6, 6-nitro-octadec-6-enoic acid] |  |  |  | 9.1 ± 1.2 µM | 7.7 ± 1.1 | 14.8 ± 1.1 µM
CCCCCCCCCCCC(=CCCCCC(=O)O)[N+](=O)[O-] [18.6.7, 7-nitro-octadec-6-enoic acid] |  |  |  | 11.2 ± 1.2 µM | 8.3 ± 1.1 | 17.3 ± 1.1 µM
CCCCCCCCCC(=CCCCCCCC(=O)O)[N+](=O)[O-] [18.8.9, 9-nitro-octadec-8-enoic acid] |  |  |  | 7.7 ± 1.2 µM | 5.7 ± 1.2 | 23.4 ± 1.3 µM
CCCCCCCCC=C(CCCCCCCC(=O)O)[N+](=O)[O-] [18.9.9, 9-nitro-octadec-9-enoic acid] |  |  |  | 5.9 µM and 6.1 µM | 4.8 ± 1.8 | 17.6 µM and 20.4 µM
CCCCCCCC/C=C\CCCCCCCC(=O)O [OA, oleic acid, reference compound] | not affected and n.i. | n.i. | n.i. |  |  | 

More lines, now with the values ahead:

PMNL (20 µM AA) 15-HETE IC50 (15-LO) | PMNL (20 µM AA) 5-HETE IC50 (5-LO) | PMNL (20 µM AA) LTB4 IC50 (5-LO) | IC50 (5-LO; [1]) | IC50 (5-LO; [2]) [µM] | IC50 (15-LO) | Compound
 |  |  | 7.5 ± 1.1 µM | 9 ± 1.1 | 8.9 ± 1.2 µM | CCCCCCCCCCCCC=C(CCCC(=O)O)[N+](=O)[O-] [18.5.5, 5-nitro-octadec-5-enoic acid]
 |  |  | 4.9 ± 1.1 µM | 4.3 ± 1.1 | 7.6 ± 1.1 µM | CCCCCCCCCCC=C(CCCCCC(=O)O)[N+](=O)[O-] [18.7.7, 7-nitro-octadec-7-enoic acid]
 |  |  | 6.6 ± 1.1 µM | 7.9 ± 1.1 | 16 ± 1.1 µM | CCCCCCCCCC=C(CCCCCCC(=O)O)[N+](=O)[O-] [18.8.8, 8-nitro-octadec-8-enoic acid]
 |  |  | 6.9 ± 1.1 µM | 5 ± 1.1 | 20.5 ± 1.3 µM | CCCCCCCCC(=CCCCCCCCC(=O)O)[N+](=O)[O-] [18.9.10, 10-nitro-octadec-9-enoic acid]
 |  |  | 6 ± 1.2 µM | 7 ± 1.1 | 19.6 ± 1.1 µM | CCCCCCCC=C(CCCCCCCCC(=O)O)[N+](=O)[O-] [18.10.10, 10-nitro-octadec-10-enoic acid]
 |  |  | 5.7 ± 1.1 µM | 5.9 ± 1.1 | 26 ± 1.3 µM | CCCCCCC=C(CCCCCCCCCC(=O)O)[N+](=O)[O-] [18.11.11, 11-nitro-octadec-11-enoic acid]
 |  |  | 4.7 ± 1.1 µM | 4.2 ± 1.1 | 21.2 ± 1.1 µM | CCCCCCCCCCC=C(CCCCCCCC(=O)O)[N+](=O)[O-] [20.9.9, 9-nitro-eicos-9-enoic acid]
